Experimental data published in patent US11377423B2, “Inhibitors of histone deacetylase” (The Broad Institute, Inc., priority 2012, dated 2022).
“And” between values parts separate entries of the source, which are not always exact repeats. Identical values can stand only once. “Also recorded” adds a separate entry of the source. Like-named read-outs stand apart in the source and are kept apart here.

Tests used:
HDAC1 = HDAC1 (Homo sapiens (Human), UniProt Q13547); experiment: Binding constant from HDAC1 inactivation kinetics
INS-1E cells [1] = experiment: ROS formation (CM-H2DCFDA probe); assay type: cell-based, rat; details: 10 μM, GLT, 48 hrs
Procedure: INS-1E cells (50,000 cells/well) were seeded in 96-well plates in 100 uL complete medium. Two days after incubation, medium was removed and cells exposed to 100 uL medium/well with the indicated concentrations of palmitate, glucose, test compounds and/or vehicle. After 24 hours, cells were aspirated and incubated for 45 min in phenol […] RPMI (Invitrogen) containing 10 μM CM-H2DCFDA probe (Molecular Probes). Wells were subsequently washed twice with phenol red-free RMPI, incubated for 3 min with Hoechst 33342 (10 ug/mL) in phenol red-free media, followed by a final washing step. Fluorescence was captured by an IX Micro automated fluorescence microscope (Molecular Devices) and quantification of ROS per cell was analyzed using MetaXpress software (Molecular Devices). Each condition was assayed in five biological replicates. Glucolipotoxicity causes oxidative stress in β cells via increased ROS formation from mitochondria. […] ROS formation per cell (48 hrs) was measured using the CM-H2DCFDA probe and Hoechst staining. Data are presented as fold to CTRL+SEM n=3-4, ns=not significant, **p<0.01, ***p<0.001 vs unexposed cells; #p<0.05, ##p<0.01, vs. GLT treated cells, ANOVA with Tukey corrected test.

HDAC8 = HDAC8 (Homo sapiens (Human), UniProt Q9BY41); experiment: Caliper HDAC enzymatic endpoint assay, HDAC8; assay type: biochemical; details: Table 2C; read-out: HDAC8 IC50 after 0 hr preincubation
INS-1E cells [2] = experiment: Insulin gene Ins1 and Ins2 expression by qPCR; assay type: cell-based, rat; details: 10 μM, glucolipotoxicity, 24 h
Procedure: INS-1E cells (one million/well) were seeded in 6-well plates in 2 mL complete medium. After two days, medium was removed and cells were exposed to 2 mL medium/well with the indicated concentrations of palmitate, glucose, HDAC inhibitors and/or vehicle. RNA was purified (Qiagen) and cDNA synthesis performed done according to manufacturers' guidelines (Applied Biosystems) and real-time PCR performed using the SYBR green method (Applied Biosystems). Each cDNA sample in triplicate was subjected to two individual PCR amplifications either for the gene of interest or the reference gene β-actin. See table below for primer sequences. Compounds of the invention counteract glucolipotoxic reductions in insulin gene […] and […] expression. […] The gene expression in FIGS. 13A and 13B were analyzed by qPCR. […] Glucose-stimulated insulin secretion and total insulin content were assessed by ELISA. Data are presented as fold to CTRL+SEM, n=3-5, ns=not significant, *p<0.05, **p<0.01, ***p<0.001 vs. CTRL, #p<0.05, ##p<0.01, ###p<0.001 vs. respective treatment. ANOVA with Tukey- or Dunnet-corrected test, or Student's t-test (insulin content).

HDAC2 [3] = molecular target: T1, HDAC2 (Homo sapiens (Human), UniProt Q92769); experiment: Tm shift; assay type: binding
[4] = Brain and plasma concentration in mice; assay type: in vivo; details: for half-life: mouse, other: injected (site of injection not given)
Procedure: Specifically, mice were injected with a single dose of compound and the concentration of compound was measured in the brain and plasma of mice at 8 time points. The samples were analyzed by LC-MS/MS.

Human islets = experiment: Glucolipotoxicity-induced apoptosis in human islets, caspase-3 activity assay; assay type: cell-based; details: 10 μM, 0.5 mM palmitate and 25 mM glucose, 72 h
Source text: Human islets were provided by the Integrated Islet Distribution Program administered by the City of Hope Hospital (IIDP: http://iidp.coh.org/). The average reported purity was 85%±5.2 and viability was 94%±0.6 (age 50±5 years, body mass index 31±2.7 kg/m2). Causes of death were head trauma (n=3), stroke and anoxia. Islets were dissociated and seeded (30,000 cells/well) into black optical 96-well plates (Corning Life Sciences) that coated with HTB-9 extracellular matrix as previously described. (Walpita, D., et al. (2012) J. Biomol. Screen. 17, 509-518.) The dissociated islet cell cultures were allowed to attach and grow in CMRL media in 10% FBS for 3 days before exposure to palmitate (0.5 mM) and high glucose (25 mM) in medium with 1% BSA and without FBS for 72 hours.
Compounds of the invention protect against combined palmitate and high glucose induced apoptosis in INS-1E cells. […] Apoptosis was measured by caspase-3 activity assay.

HDAC3 = HDAC3 (Homo sapiens (Human), UniProt O15379); experiment: Kinetics of the inhibition of HDAC3
[5] = tested on: human megakaryocyte progenitors; experiment: Growth of human megakaryocyte progenitors (surrogate assay for platelet depletion); assay type: cell-based; details: 0.1, 1, 10 and 20 μM, relative to DMSO treated cells
Procedure: Compounds of the invention were evaluated for their effect on the growth of human megakaryocyte progenitors (surrogate assay for platelet depletion). Human CD34+ cells were grown in a collagen-based gel (Megacult-C, Stemcell Technologies). […] 100% indicates no difference in cell viability relative to the DMSO treated cells. […] This is the desired effect.

[6] = Fear conditioning assay in normal animals; assay type: in vivo; details: wild type normal mouse, single dose
Source text: In one aspect, the invention provides methods and compositions for promoting cognitive function and enhancing learning and memory formation in both normal subjects as well as those suffering from memory loss and cognitive function disorders/impairments. […] A normal subject, as used herein, is a subject that has not been diagnosed with a disorder associated with impaired cognitive function. “Cognitive function” refers to mental processes of a subject relating to information gathering and/or processing; the understanding, reasoning, and/or application of information and/or ideas; the abstraction or specification of ideas and/or information; acts of creativity, problem-solving, and possibly intuition; and mental processes such as learning, perception, and/or awareness of ideas and/or information. The mental processes are distinct from those of beliefs, desires, and the like.

HDAC2 [7] = molecular target: T1, HDAC2; experiment: Caliper HDAC enzymatic endpoint assay, HDAC2; assay type: biochemical
[8] = mice, single dose, Repligen 136 30 mg/kg, Compound 1 10 mg/kg

T1 sequence (Q92769 whole entry): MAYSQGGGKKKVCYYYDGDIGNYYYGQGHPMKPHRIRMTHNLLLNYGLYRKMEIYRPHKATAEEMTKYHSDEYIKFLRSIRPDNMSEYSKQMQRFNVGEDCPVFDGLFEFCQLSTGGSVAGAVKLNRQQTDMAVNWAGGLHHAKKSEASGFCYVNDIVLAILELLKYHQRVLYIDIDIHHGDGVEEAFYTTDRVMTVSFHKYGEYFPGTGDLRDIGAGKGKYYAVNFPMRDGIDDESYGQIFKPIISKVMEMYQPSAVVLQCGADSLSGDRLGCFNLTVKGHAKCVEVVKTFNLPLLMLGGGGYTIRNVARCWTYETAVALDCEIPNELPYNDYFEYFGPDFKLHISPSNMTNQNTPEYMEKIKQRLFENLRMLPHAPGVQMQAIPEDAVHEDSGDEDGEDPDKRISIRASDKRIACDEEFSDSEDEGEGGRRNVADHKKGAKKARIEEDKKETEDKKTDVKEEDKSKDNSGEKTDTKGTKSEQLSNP
HDAC3, sequence (O15379 whole entry): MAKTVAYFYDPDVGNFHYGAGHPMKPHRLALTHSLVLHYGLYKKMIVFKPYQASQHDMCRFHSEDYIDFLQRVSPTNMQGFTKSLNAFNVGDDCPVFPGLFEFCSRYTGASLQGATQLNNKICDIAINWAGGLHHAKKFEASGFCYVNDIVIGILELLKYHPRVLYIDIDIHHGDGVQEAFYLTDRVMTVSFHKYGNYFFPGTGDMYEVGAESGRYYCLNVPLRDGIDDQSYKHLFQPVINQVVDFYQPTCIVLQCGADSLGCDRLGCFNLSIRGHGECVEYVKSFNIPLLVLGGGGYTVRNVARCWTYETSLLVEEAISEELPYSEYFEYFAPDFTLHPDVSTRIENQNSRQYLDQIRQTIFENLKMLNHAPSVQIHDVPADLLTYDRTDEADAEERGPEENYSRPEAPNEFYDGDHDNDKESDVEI
HDAC3, sequence (Q9Y618 395-489 partner): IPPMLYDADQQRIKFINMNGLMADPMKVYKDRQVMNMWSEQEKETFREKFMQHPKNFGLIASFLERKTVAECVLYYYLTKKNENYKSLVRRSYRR
HDAC1, sequence (Q13547 whole entry): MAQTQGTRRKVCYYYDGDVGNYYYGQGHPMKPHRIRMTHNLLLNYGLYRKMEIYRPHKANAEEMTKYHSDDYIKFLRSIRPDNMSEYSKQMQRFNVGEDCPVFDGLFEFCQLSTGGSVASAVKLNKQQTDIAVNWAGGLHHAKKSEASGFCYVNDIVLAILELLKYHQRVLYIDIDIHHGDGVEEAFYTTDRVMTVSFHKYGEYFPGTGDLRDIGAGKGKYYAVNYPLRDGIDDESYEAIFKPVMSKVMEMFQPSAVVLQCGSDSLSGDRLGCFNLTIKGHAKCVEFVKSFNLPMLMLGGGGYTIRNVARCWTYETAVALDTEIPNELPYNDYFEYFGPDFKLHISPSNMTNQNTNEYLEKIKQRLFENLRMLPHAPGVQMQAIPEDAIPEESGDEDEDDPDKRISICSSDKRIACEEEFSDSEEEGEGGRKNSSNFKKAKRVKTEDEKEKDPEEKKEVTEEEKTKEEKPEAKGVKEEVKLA
HDAC8, sequence (Q9BY41 whole entry): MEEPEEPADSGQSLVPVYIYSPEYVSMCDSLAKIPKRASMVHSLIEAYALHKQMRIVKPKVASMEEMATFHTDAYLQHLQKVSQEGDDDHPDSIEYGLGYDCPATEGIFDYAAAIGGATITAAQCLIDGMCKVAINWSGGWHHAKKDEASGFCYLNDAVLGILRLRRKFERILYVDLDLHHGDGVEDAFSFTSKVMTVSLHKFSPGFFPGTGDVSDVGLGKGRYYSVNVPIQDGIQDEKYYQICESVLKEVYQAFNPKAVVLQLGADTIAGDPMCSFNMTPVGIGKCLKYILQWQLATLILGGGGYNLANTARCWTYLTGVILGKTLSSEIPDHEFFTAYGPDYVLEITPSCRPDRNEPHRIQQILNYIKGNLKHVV

KI (inactivation) (HDAC1; HDAC1, values marked *, read-out: Ki (binding constant derived from HDAC1 inactivation kinetics)): 5100 nM | Kd (HDAC1; from Kinactivation vs concentration, read-out: Kd of HDAC1-Compound 1 complex): 5100 nM | IC50 (HDAC8): > 33000 nM | Tm shift (HDAC2 [3]): 2.7 °C | better brain exposure in comparison to Repligen 136 as measured by Cmax ([4]; dose normalized): 30 times | better brain exposure in comparison to Repligen 136 measured by AUC ([4]; dose normalized): 120 times | AUC Brain [4, 8]: 12.77 µM·h | Cmax Brain [4, 8]: 3.80 µM | concentration in the brain over time [4, 8]: still present in the brain after 8 hours | half-life ([4]; brain, read-out: T1/2 Brain (converted)): 2.06 h | half-life ([4]; plasma, read-out: T1/2 Plasma (converted)): 2.26 h | better plasma exposure as measured by AUC than Repligen 136 ([4]; plasma): 30 times | koff (HDAC3): 0.000147 s⁻¹ | Ki (HDAC3; HDAC3): 29 nM | Kon (HDAC3; HDAC3): 0.30 min^−1, uM^−1 and 0.3 min^−1, uM^−1 | koff (HDAC3; HDAC3): 0.000147 s⁻¹ | type of binding to HDAC3 (words) (HDAC3; HDAC3): slow, tight-binding inhibitor | type of binding to HDAC3 (words) (HDAC3; HDAC3, listed as compound 1): fast on/slow off binding | T1/2 (HDAC3; HDAC3 residence): 1.32 h | binding selectivity (Ki) for HDAC3 versus HDAC1 (HDAC3; thermodynamic (Ki)): 175 fold | binding selectivity (Ki) for HDAC3 versus HDAC2 (HDAC3; thermodynamic (Ki)): 217 fold | IC50 (HDAC2 [7]; read-out: HDAC2 IC50 3 h Prein, Table 2, 3 h preincubation): 1420 nM | IC50 (HDAC2 [7]; read-out: HDAC2 IC50 3 h Preinc, Table 2A, 3 h preincubation): 1420 nM | IC50 (HDAC2 [7]; read-out: HDAC2 IC50 @3 hr, 3 hr preincubation): 1420 nM
SMILES: CC(=O)Nc1ccc(C(=O)Nc2ccc(F)cc2N)cc1 [Compound 1, 4-acetamido-N-(2-amino-4-fluorophenyl)benzamide]
glucolipotoxicity-induced ROS formation (INS-1E cells [1]): reduces glucolipotoxicity-induced ROS formation | insulin gene Ins1 expression (INS-1E cells [2]): partially restoring insulin gene Ins1 expression | insulin gene Ins2 expression (INS-1E cells [2]): partially restoring insulin gene Ins2 expression | glucolipotoxicity-induced apoptosis in human islets (Human islets): decreases glucolipotoxicity-induced apoptosis in human islets | effect on growth and viability of human megakaryocyte progenitor cells [5]: does not significantly inhibit cell growth; also recorded: no significant effect on growth and viability | effect in fear conditioning assay [6]: no effect was observed
